For test [1], the system named is HSV. Conditions: acyclovir treatment, given orally; cited from earlier work.
Test [2] concerns SARS-CoV-2 Isolate USA-WA1/2020. In words: SARS-CoV-2 plaque assay in Vero E6 cells (virus pre-incubated with peptoid). Conditions: for % control: plaque count relative to control; for Count (plaques): virus-peptoid incubated two hours at 37° C., Vero E6. It counts as cell-based.

Several values for one entry are separate records, joined by “and”; a condition that tells them apart may be missing. Identical values can stand only once.

As for `Nc1nc2c(ncn2COCCO)c(=O)[nH]1` [acyclovir], the reduction of transmission in test [1] is on record as 50%.
As to “H-((NLys-Nspe(p-Br)-Nspe(p-Br))2—NH2 [MXB-004]”, the “% control” value in test [2] (5 μg/ml) was 86.36% and 102.27%; in test [2] (10 μg/ml), 136.36% and 134.09%; in test [2] (20 μg/ml), 54.55% and 56.82%; in test [2] (40 μg/ml), 15.91%. Further, the “Count (plaques)” value in test [2] (5 μg/ml) was 38 and 45; in test [2] (10 μg/ml) it was 60 and 59; in test [2] (20 μg/ml) it was 24 and 25; in test [2] (40 μg/ml), 7.
Turning to H-(NLys-Nspe-Nspe)4-NH2 [MXB-001], the “% control” value in test [2] (5 μg/ml) is 118.18% and 113.64%; in test [2] (10 μg/ml) it was 100% and 118.18%; in test [2] (20 μg/ml) it was 125%; in test [2] (40 μg/ml), 104.55%. The “Count (plaques)” value is 52 and 50 in test [2] (5 μg/ml); 44 and 52 in test [2] (10 μg/ml); 55 in test [2] (20 μg/ml); 46 in test [2] (40 μg/ml).
